# pIC50: −log10 of the molar value.
# Assays:
# [1] = system: human lens cell line FHL124; assay: FHL124 cell growth patch assay; format: cell-based; conditions: for growth of FHL124 cells: 4 days
# Description: The effect of sigma ligands on human lens cell growth in FHL124 cell line maintained in serum-free media (A) or EMEM supplemented with 5% FCS (B). […] The cells were cultured for 4 days with experimental conditions. Experiments were repeated on 4 occasions. Data are expressed as Mean±S.E.M., the star represents significant difference from untreated control with rimcazole, and box represents significant difference from untreated control with (±)SKF 10047 (test p<0.05).
# The effect of sigma-1 ligands on human lens cell growth in FHL 124 cell line maintained in serum-free media. A represents the data of patch area measurement. B represents the dye extraction from each stained patch, ie. cell number. The cells were cultured for 4 days with experimental conditions. Experiments were repeated on 4 occasions. Data are expressed as Mean±S.E.M, the star represents significant difference from untreated control with rimcazole, and ▪ represents significant difference from untreated control with (±)SKF10047 (test p<0.05).
# The growth of the spontaneously immortal human lens cell line FHL124 was investigated using a patch assay. Cells grown from a single patch derived from a coverslip and stained with dye to estimate the cell number. […] (FIG. 6). […] Attenuation of rimcazole and BD-1047-mediated growth inhibition by a highly specific sigma-1 agonist confirms that growth inhibition is at least partly mediated through antagonism of sigma-1 sites.
# [2] = system: adult dermal microvascular endothelial cells; assay: MTS cell viability, rescue by sigma-1 agonists; format: cell-based, human; conditions: co-administration of equimolar concentrations (10 μM) of sigma-1 agonist
# Description: (§1) Human adult male dermal fibroblasts, adult mammary epithelial cells, adult dermal microvascular endothelial cells and bovine lens epithelial cells at low passage were exposed to 10 μM concentrations of the sigma-1 antagonists rimcazole and IPAG for up to 72 hours. Change in cell viability over time was measured in the MTS assay; data points represent mean values (±SD), obtained from wells in triplicate, expressed relative to baseline (pre-treatment) values. Graphs depict representative experiments, performed at least three times.
# [3] = system: human lens epithelial cells on the posterior capsule; assay: in vitro capsular bag growth assay (cell coverage of the posterior capsule); format: cell-based; conditions: for growth of human lens cells on the posterior capsule: 3 μm, FIG. 2, FIG. 3
# Description: Rate of cell coverage of the posterior capsule beyond the rhexis; 100% represents confluency. Experiments were repeated on 4 occasions. The means and standard errors are display ed.
# (§2) Rate of cell coverage of the posterior capsule beyond the rhexis; 100% represents confluency. Experiments were repeated on 4 occasions.
# The model previously described by Liu et al (1996) was used. A sham cataract operation was performed on human donor eyes. The resultant capsular bag was then dissected free of the zonules and secured on a sterile 35 mm PMMA petri dish. Eight entomological pins (D1: Watkins and Doncaster Ltd., Kent, UK) were inserted through the edge of the capsule to retain its circular shape. Incubation was at 35° C. in a 5% CO2 atmosphere. Ongoing observations were performed with a Nikon phase-contrast microscope and images captured with a digital camera (Coolpix 950; Nikon. Tokyo, Japan) with associated imaging software (a person, personal communication). In some cases preparations were used for radioactive isotope studies.
# (§3) The bags were maintained in Eagle's minimum essential medium (EMEM) or EMEM supplemented with either 3 μM Rimcazole dihydrochloride (rimcazole), 10 μm(+)-SKF 10047 hydrochloride (SKF), and 3 μM or 10 μM BD1047 dihydrochloride (BD1047) (all supplied by TOCRIS) and incubate at 35° C. in a 5% CO2 atmosphere. The medium was replaced every 2 days and ongoing observations and analyses were performed as above.
# [4] = system: primary human lens epithelial cells on the posterior capsule; assay: pigmentation of lens cells during growth inhibition assays; format: cell-based; conditions: sub-lethal dose (3 μM), control cells remained clear, FIG. 8, 9
# Description: Phase micrographs of cultured human lens cells on central anterior (upper) and posterior capsule (lower) respectively. The cells were maintained in serum-free or supplemented (3 μM Rimcazole) media for one week. The images were converted to grayscale with Adobe photoshop software.
# Formation of pigment granules in human epithelial cells. A. Different stages of pigment granule formation (I-IV) as defined in MNT-1 melanoma cells by Seiji et al. 1963. B. Cross section of human lens epithelial cells grown in (a) control medium and (b) the presence of 3 μM BD1047.
# as §3
# This pigmentation was also present in cells similarly tested on the rhexis (anterior capsule) removed during preparation of the capsular bag (FIG. 8) and in the FHL-124 lens cell line (not shown). […]
# [5] = system: tumour cells; assay: tumour cell growth inhibition / killing; format: cell-based, human; conditions: read-out: IC50 (concentration of drug required to produce 50% growth inhibition) for tumour cells
# Text: It has therefore been proposed that the subcellular localisation of the sigma receptor may contribute to the degree of susceptibility to sigma ligands (Spruce et al Cancer Research 2004). Without wishing to be bound by theory, the present inventors postulated that differential subcellular localisation of the sigma receptor, or other factors, could lead to sigma ligands being differentially potent in lens epithelial cells compared to tumour cells. […] Specifically, the IC50 (the concentration of drug required to produce 50% growth inhibition) of BD-1047 for tumour cells is in the region 50-100 micromolar; in contrast, the IC50 for human lens epithelial cells (in the capsular bag system) is in the region of 10 micromolar.
# as §2
# [6] = system: bovine lens epithelial cells; assay: in vitro cell death assay (MTS cell viability) on tissue culture plastic; format: cell-based; conditions: 10 μM, up to 72 hours, FIG. 1
# Description: as §1
# [7] = system: human lens epithelial cells; assay: efflux of radioactive isotopes (3H-dopamine, 14C-tyrosine) in capsular bags; format: cell-based; conditions: capsular bag system, 3 μM rimcazole
# Description: Efflux of (A) ^3H-dopamine and (B) ^14C-tyrosine from human lens epithelial cells in control (SF) and rimcazole supplemented media. Data are presented as mean±6 separate experiments.
# Capsular bags were maintained in Eagle's minimum essential medium (EMEM) or EMEM supplemented with 3 μM. Rimcazole dihydrochloride (rimcazole) (TOCRIS) for 7 days (when the pigment granules could be observed in cells). 1 μCl/ml of ^3H-dopamine and 2 μCi/ml of ^14C-tyrosine (Amersham Biosciences) were then added to each dish for an additional 24 hours. At the end point, 10 μl of medium were collected from each dish, and transferred into scintillation vials. The bags were washed briefly twice with EMEM and fresh control or experimental media added for one hour. The medium was then collected into scintillation vials and the procedure repeated eights times. The experiment was then terminated by adding 1 ml of ice-cold 5% Trichloroacetic acid (TCA) (Fisher Chemicals) to each dish. After 30 minutes, the TCA was removed from each well to determine the cytosolic dopamine and tyrosine levels. 1 ml of 250 mM NaOH was then added to each dish to determine the radio-isotope levels in the TCA precipitable fraction. 10 mls of scintillation fluid (Hisafe Supermix) were then added to each scintillation vial and the samples assayed using a Wallac scintillation counter with appropriate background controls. […]
# [8] = system: lens epithelial cells in the presence of the bovine capsule; conditions: versus cells cultured in isolation; cited from earlier work
smiles,measurement,setting,value
"C=CCN1CCC2(C)c3cc(O)ccc3CC1C2C.Cl (single isomer, unassigned; (+)) [(+)-SKF10047, (+)-SKF 10047 hydrochloride]",rescue of sigma antagonist (rimcazole)-mediated growth inhibition of FHL124 cells,"[1]; both concentrations, serum free medium, FIG. 5",partially rescues
same,restoration of growth to BD1047 inhibited FHL124 cells,"[1]; higher concentrations of BD1047 (10 and 30 μm), FIG. 6",partially restores growth
same,protection of microvascular endothelial cells from rimcazole and IPAG,[2],protected
"CC(C)=CCN1CCC2(C)c3cc(O)ccc3CC1C2C (single isomer, unassigned; (+)) [(+)-pentazocine]",protection of microvascular endothelial cells from rimcazole and IPAG,[2],protected
CN(C)CCN(C)CCc1ccc(Cl)c(Cl)c1 [BD1047],"growth inhibition of FHL124 cells (patch size, protein content)","[1]; lower dose (10 μm), serum-free, FIG. 6",less effective
same,growth of human lens cells on the posterior capsule,[3],less inhibitory
same,growth of lens cells on the capsule,"[3]; 10 μm, FIG. 4",potently inhibits growth
same,pIC50,[3]; in the capsular bag system,~5.00
same,pigmentation of primary human lens epithelial cells,[4],become pigmented
same,pIC50,[5],4.00 to 4.30
NC(=NC1C2CC3CC(C2)CC1C3)Nc1ccc(I)cc1 (centres unmarked) [IPAG],susceptibility of primary bovine lens cells in tissue culture compared with tumour cells,[6],almost as susceptible
C[C@@H]1CN(CCCn2c3ccccc3c3ccccc32)C[C@H](C)N1 [Rimcazole],dopamine efflux,[7]; FIG. 10A,unaffected
same,efflux of 14C-tyrosine from lens cells,[7]; FIG. 10B,no effect
same,growth of FHL124 cells,"[1]; 3 and 10 μm, serum free medium, FIG. 5",significantly inhibited
same,growth of FHL124 cells,"[1]; 5% FCS, higher dose (10 μm), FIG. 5",growth inhibition is less marked
same,growth of human lens cells on the posterior capsule,[3],inhibits growth
same,cell killing in human lens epithelial cells,[3]; contained in the human capsular bag system,potently induces cell killing
same,pigmentation of primary human lens epithelial cells,[4],become pigmented
same,susceptibility of primary bovine lens cells in tissue culture compared with tumour cells,[6],almost as susceptible
same,ability to induce apoptosis in lens epithelial cells,[8],substantially less able to induce apoptosis

# From patent US20090036464A1, “Treatment Of Posterior Capsule Opacification” (priority 2004, published 2009)
